pIC50: −log10 of the molar value.
These compounds were tested against T1, IGF-1R Ba/F3 (Homo sapiens, UniProt P08069) (assay: Ba/F3 Cell Viability Inhibition Assay (IGF-1R Ba/F3)). Details: Tel-TK transformed Ba/F3 cells, 48 hours, Britelite luminescence.
T1 construct: fused on or other part: TEL- (or BCR-) IGF-1R in Ba/F3: the kinase part holds the site
T1 sequence (P08069 999-1274 limits assumed): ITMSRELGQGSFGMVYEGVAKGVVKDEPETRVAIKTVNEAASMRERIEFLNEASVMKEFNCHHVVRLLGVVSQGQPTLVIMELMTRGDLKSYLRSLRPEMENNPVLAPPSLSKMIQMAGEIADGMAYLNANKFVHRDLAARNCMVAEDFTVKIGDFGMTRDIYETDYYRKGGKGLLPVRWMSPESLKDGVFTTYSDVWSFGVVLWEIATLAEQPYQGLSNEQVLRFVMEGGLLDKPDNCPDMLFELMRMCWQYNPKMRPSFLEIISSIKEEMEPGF
Assay type: cell-based, murine
Summary of the method: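 IL-3-independent murine Ba/F3 cells transformed with a TEL/BCR-fused IGF-1R kinase were seeded at 3750 cells/well and exposed to serially diluted compound for 48 h at 37 °C. Viability was read by Britelite luminescence. IC50 is the concentration giving 50% of DMSO-control viability, from a logistic fit.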
In the case of `CCc1cnc(N2CCC(c3cc(F)c(Nc4ncc(Cl)c(Nc5cc(C)[nH]n5)n4)cc3C)CC2)nc1` [Compound 149, 5-Chloro-N2-(4-(1-(5-ethylpyrimidin-2-yl)piperidin-4-yl)-2-fluoro-5-methylphenyl)-N4-(5-methyl-1H-pyrazol-3-yl)pyrimidine-2,4-diamine], the pIC50 was 6.02. `Cc1cc(Nc2nc(Nc3cc(C)c(C4CCN(C(=O)C5CCNCC5)CC4)cc3F)ncc2Cl)n[nH]1` [Compound 115, (4-(4-(5-chloro-4-(5-methyl-1H-pyrazol-3-ylamino)pyrimidin-2-ylamino)-5-fluoro-2-methylphenyl)piperidin-1-yl)(piperidin-4-yl)methanone] was tested, and the pIC50 was 5.80. In the case of `CNC1(C(=O)N2CCC(c3cc(C)c(Nc4ncc(Cl)c(Nc5cc(C)[nH]n5)n4)cc3C)CC2)CC1` [Compound 90, (4-(4-(5-chloro-4-(5-methyl-1H-pyrazol-3-ylamino)pyrimidin-2-ylamino)-2,5-dimethylphenyl)piperidin-1-yl)(1-(methylamino)cyclopropyl)methanone], the pIC50 was 8.30. Work on `Cc1cc(Nc2nc(Nc3cc(C)c(C4CCN(C(=O)[C@@H]5CCCN5C)CC4)cc3C)ncc2Cl)n[nH]1` [Compound 121, (S)-(4-(4-(5-chloro-4-(5-methyl-1H-pyrazol-3-ylamino)pyrimidin-2-ylamino)-2,5-dimethylphenyl)piperidin-1-yl)(1-methylpyrrolidin-2-yl)methanone] yielded a pIC50 of 7.77. `Cc1cc(Nc2nc(Nc3cc(C)c(C4CCN(C(=O)[C@@H]5C(O)CCN5C)CC4)cc3F)ncc2Cl)n[nH]1` (stereo in doubt) [Compound 139, (4-(4-(5-chloro-4-(5-methyl-1H-pyrazol-3-ylamino)pyrimidin-2-ylamino)-5-fluoro-2-methylphenyl)piperidin-1-yl)((2S,3R)-3-hydroxy-1-methylpyrrolidin-2-yl)methanone] was tested, and the pIC50 was 6.76. `Cc1cc(Nc2nc(Nc3cc(C(F)(F)F)c(N4CCN(C)CC4)cc3C)ncc2Cl)n[nH]1` [Compound 156, 5-chloro-N4-(5-methyl-1H-pyrazol-3-yl)-N2-(2-methyl-4-(4-methylpiperazin-1-yl)-5-(trifluoromethyl)phenyl)pyrimidine-2,4-diamine] showed a pIC50 of 7.40. `Cc1cc(C2CCN(C(=O)C3(N)CC3)CC2)c(C)cc1Nc1ncc(Cl)c(Nc2cc(C3CC3)[nH]n2)n1` [Compound 188, (1-aminocyclopropyl)(4-(4-(5-chloro-4-(5-cyclopropyl-1H-pyrazol-3-ylamino)pyrimidin-2-ylamino)-2,5-dimethylphenyl)piperidin-1-yl)methanone] was tested, and the pIC50 was 7.72. In the case of `CCNC(C)(C)C(=O)N1CCC(c2cc(C)c(Nc3ncc(Cl)c(Nc4cc(C)[nH]n4)n3)cc2C)CC1` [Compound 175, 1-(4-(4-(5-chloro-4-(5-methyl-1H-pyrazol-3-ylamino)pyrimidin-2-ylamino)-2,5-dimethylphenyl)piperidin-1-yl)-2-(ethylamino)-2-methylpropan-1-one], the pIC50 was 8.30. `CNC(C)C(=O)N1CCC(c2cc(F)c(Nc3ncc(Cl)c(Nc4cc(C)[nH]n4)n3)cc2C)CC1` (stereo not shown) [Compound 85, 1-(4-(4-(5-chloro-4-(5-methyl-1H-pyrazol-3-ylamino)pyrimidin-2-ylamino)-5-fluoro-2-methylphenyl)piperidin-1-yl)-2-(methylamino)propan-1-one] gave a pIC50 of 7.38. `Cc1cc(Nc2nc(Nc3cc(C)c(C4CCN([C@H](C)C(N)=O)CC4)cc3F)ncc2Cl)n[nH]1` [Compound 165, (R)-2-(4-(4-(5-chloro-4-(5-methyl-1H-pyrazol-3-ylamino)pyrimidin-2-ylamino)-5-fluoro-2-methylphenyl)piperidin-1-yl)propanamide] was tested, and the pIC50 was 7.42. `Cc1cc(Nc2nc(Nc3cc(C)c(C4CCN(C5=CC(=O)CC5)CC4)cc3F)ncc2Cl)n[nH]1` [Compound 282, 3-(4-(4-(5-Chloro-4-(5-methyl-1H-pyrazol-3-ylamino)pyrimidin-2-ylamino)-5-fluoro-2-methylphenyl)piperidin-1-yl)cyclopent-2-en-one] was tested, and the pIC50 was 7.32. With `COc1cc(Nc2ncc(Cl)c(Nc3cc(C)[nH]n3)n2)c(C)cc1C1CCN(CC(N)=O)CC1` [Compound 262, 2-(4-(4-(5-chloro-4-(5-methyl-1H-pyrazol-3-ylamino)pyrimidin-2-ylamino)-2-methoxy-5-methylphenyl)piperidin-1-yl)acetamide] the pIC50 was 7.72. Work on `COCC(=O)N1CCC(c2cc(C)c(Nc3ncc(Cl)c(Nc4cc(C)[nH]n4)n3)cc2C)CC1` [Compound 106, 1-(4-(4-(5-chloro-4-(5-methyl-1H-pyrazol-3-ylamino)pyrimidin-2-ylamino)-2,5-dimethylphenyl)piperidin-1-yl)-2-methoxyethanone] yielded a pIC50 of 8.70. `Cc1cc(Nc2nc(Nc3cc(C(F)(F)F)c(C4CCN(CC(N)=O)CC4)cc3C)ncc2Cl)n[nH]1` [Compound 47, 2-(4-(4-(5-chloro-4-(5-methyl-1H-pyrazol-3-ylamino)pyrimidin-2-ylamino)-5-methyl-2-(trifluoromethyl)phenyl)piperidin-1-yl)acetamide] gave a pIC50 of 7.66. Compound `Cc1cc(Nc2nc(Nc3cc(C)c(C4CCN(Cc5ccnnc5)CC4)cc3C)ncc2Cl)n[nH]1` [Compound 21, 5-chloro-N2-(2,5-dimethyl-4-(1-(pyridazin-4-ylmethyl)piperidin-4-yl)phenyl)-N4-(5-methyl-1H-pyrazol-3-yl)pyrimidine-2,4-diamine] has a pIC50 of 8.70. With `Cc1cc(Nc2nc(Nc3cc(C)c(C4CCN(Cc5cccnc5)CC4)cc3C)ncc2Cl)n[nH]1` [Compound 308, 5-chloro-N2-(2,5-dimethyl-4-(1-(pyridin-3-ylmethyl)piperidin-4-yl)phenyl)-N4-(5-methyl-1H-pyrazol-3-yl)pyrimidine-2,4-diamine] the pIC50 was 8.22. Compound `Cc1cc(Nc2nc(Nc3cc(C)c(C4CCN(C(C)C(N)=O)CC4)cc3C)ncc2Cl)n[nH]1` (stereo not shown) [Compound 51, 2-(4-(4-(5-chloro-4-(5-methyl-1H-pyrazol-3-ylamino)pyrimidin-2-ylamino)-2,5-dimethylphenyl)piperidin-1-yl)propanamide] has a pIC50 of 8.05. With `Cc1cc(Nc2nc(Nc3cc(C)c(C4CCN(CCO)CC4)cc3C)ncc2Cl)n[nH]1` [Compound 23, 2-(4-(4-(5-chloro-4-(5-methyl-1H-pyrazol-3-ylamino)pyrimidin-2-ylamino)-2,5-dimethylphenyl)piperidin-1-yl)ethanol] the pIC50 was 8.22. `CNC(=O)CN1CCC(c2cc(C)c(Nc3ncc(Cl)c(Nc4cc(C)[nH]n4)n3)cc2OC)CC1` [Compound 46, 2-(4-(4-(5-chloro-4-(5-methyl-1H-pyrazol-3-ylamino)pyrimidin-2-ylamino)-2-methoxy-5-methylphenyl)piperidin-1-yl)-N-methylacetamide] was tested, and the pIC50 was 7.89. With `CCN1CCC(c2cc(F)c(Nc3ncc(Cl)c(Nc4cc(C)[nH]n4)n3)cc2C)CC1` [Compound 232, 5-chloro-N^2-(4-(1-ethylpiperidin-4-yl)-2-fluoro-5-methylphenyl)-N^4-(5-methyl-1H-pyrazol-3-yl)pyrimidine-2,4-diamine] the pIC50 was 7.70. Compound `Cc1cc(Nc2nc(Nc3cc(C)c(C4CCN(C(=O)CN5CCOCC5)CC4)cc3F)ncc2Cl)n[nH]1` [Compound 97, 1-(4-(4-(5-chloro-4-(5-methyl-1H-pyrazol-3-ylamino)pyrimidin-2-ylamino)-5-fluoro-2-methylphenyl)piperidin-1-yl)-2-morpholinoethanone] has a pIC50 of 7.70. Compound `Cc1cc(Nc2nc(Nc3cc(C)c(C4CCCN(C[C@H](O)C(F)(F)F)C4)cc3C)ncc2Cl)n[nH]1` (stereo partly drawn) [Compound 201, (2S)-3-(3-(4-(5-chloro-4-(5-methyl-1H-pyrazol-3-ylamino)pyrimidin-2-ylamino)-2,5-dimethylphenyl)piperidin-1-yl)-1,1,1-trifluoropropan-2-ol] has a pIC50 of 7.34. In the case of `CC(=O)NCC(=O)N1CCC(c2cc(F)c(Nc3ncc(Cl)c(Nc4cc(C)[nH]n4)n3)cc2C)CC1` [Compound 107, N-(2-(4-(4-(5-chloro-4-(5-methyl-1H-pyrazol-3-ylamino)pyrimidin-2-ylamino)-5-fluoro-2-methylphenyl)piperidin-1-yl)-2-oxoethyl)acetamide], the pIC50 was 7.24. Compound `CCC(C(N)=O)N1CCC(c2cc(C)c(Nc3ncc(Cl)c(Nc4cc(C)[nH]n4)n3)cc2C)CC1` (stereo not shown) [Compound 185, 2-(4-(4-(5-chloro-4-(5-methyl-1H-pyrazol-3-ylamino)pyrimidin-2-ylamino)-2,5-dimethylphenyl)piperidin-1-yl)butanamide] has a pIC50 of 8.05. Compound `Cc1cc(Nc2nc(Nc3cc(C)c(C4CCN(CC(N)=O)C(C)C4)cc3F)ncc2Cl)n[nH]1` (stereo not shown) [Compound 274, 2-(4-(4-(5-chloro-4-(5-methyl-1H-pyrazol-3-ylamino)pyrimidin-2-ylamino)-5-fluoro-2-methylphenyl)-2-methylpiperidin-1-yl)acetamide] has a pIC50 of 8.22. In the case of `Cc1cc(Nc2nc(Nc3cc(C)c(C4CCN(Cc5noc(C)n5)CC4)cc3F)ncc2Cl)n[nH]1` [Compound 292, 5-chloro-N2-(2-fluoro-5-methyl-4-(1-((5-methyl-1,2,4-oxadiazol-3-yl)methyl)piperidin-4-yl)phenyl)-N4-(5-methyl-1H-pyrazol-3-yl)pyrimidine-2,4-diamine], the pIC50 was 7.64. With `Cc1cc(Nc2nc(Nc3cc(C)c(C4CCN(Cc5ccccn5)CC4)cc3F)ncc2Cl)n[nH]1` [Compound 281, 5-chloro-N2-(2-fluoro-5-methyl-4-(1-(pyridin-2-ylmethyl)piperidin-4-yl)phenyl)-N4-(5-methyl-1H-pyrazol-3-yl)pyrimidine-2,4-diamine] the pIC50 was 7.06. `Cc1cc(Nc2ncc(Cl)c(Nc3cc(C(F)(F)F)[nH]n3)n2)c(F)cc1C1CCN(CC(N)=O)CC1` [Compound 173, 2-(4-(4-(5-chloro-4-(5-(trifluoromethyl)-1H-pyrazol-3-ylamino)pyrimidin-2-ylamino)-5-fluoro-2-methylphenyl)piperidin-1-yl)acetamide] was tested, and the pIC50 was 7.31.
